Tests used:
[1] = test system: naïve CD4^+ T cells / CD4^+CD25^+ natural Treg cells; test: Treg differentiation and expansion in vitro (anti-CD3, irradiated splenocytes, IL-2); assay type: cell-based
Method: Treg cell generation was analyzed after 7-10 days of culture by flow cytometry.

cd3ε^−/− mice [2] = test: Inflammatory bowel disease induced by naïve CD4^+ T cells; assay type: in vivo, mouse
Description: FIG. 8: Amelioration of inflammatory bowel disease by oATP treatment. • a) Photographs of representative mesenteric lymph nodes, spleens and colons from cd3ε^−/− mice adoptively transferred with CD4^+/CD25^+ and CD4^+ cells (see Example 5). […] Bar=1 cm • b) Histograms representing inflammation scores in animals treated as indicated (see methods section) (mean±SD; n=5, CD4^+/25^+ healthy control group; n=7, CD4^+ untreated group; n=8, CD4^+ oATP-treated group). • c) Hematoxilin/eosin (upper panels) and Alcian/PAS (lower panels) staining of colon sections from the indicated animals (all the microscopic pictures in the box were taken at the same magnification; scale bar=50 μm). […] Partial goblet cell depletion and reduction in size of Alcian-PAS-positive droplets are also noticeable (arrowheads); in mice reconstituted with CD4 cells and treated with PBS, the lamina propria is markedly expanded by inflammatory cell infiltrate with focal findings of crypt abscessation (arrow). Colonic crypts are also severely dysplastic with almost complete loss of goblet cells. • d) Cell recoveries from mesenteric lymph nodes and spleen of the indicated animals.
e) Absolute numbers of IL-2-, TNFα-, IFNγ- and IL-17-producing CD4^+ T cells in mesenteric lymph nodes from the indicated mice (mean±SD; n=5, CD4^+/25^+ healthy group; n=7, CD4^+ untreated group; n=8, CD4^+ oATP-treated group). *, P<0.05, **, P<0.001, ***, P<0.0001 • f) Absolute numbers of CD44^+CD62L^− effector/memory and CD69^+ CD4 cells recovered from mesenteric lymph nodes and spleen of the indicated group of animals (bars represent mean values).
To test oATP in a non-transgenic model of T cell-mediated inflammation, we induced inflammatory bowel disease (IBD) in T lymphopenic cd3ε^−/− mice by injecting naïve CD4^+ T cells. As a healthy control we used cd3ε^−/− mice injected with naïve CD4^+ T cells together with CD4^+CD25^+ cells comprising regulatory T cells (Treg). […] Starting at day 15 after cell transfer, the IBD group was daily injected intravenously either with PBS or oATP.

[3] = test system: OVA-specific T cell clones; test: Calcium imaging of CD3 responsiveness after pre-stimulation (anergy); assay type: cell-based, mouse; settings: pre-incubated 16 h
Description: (§1) NFAT nuclear translocation without concomitant MAPK activation, which can be obtained by ionomycin treatment, implements a transcriptional program leading to T cell anergy (Macian et al., Cell 109:719-731 (2002)). […] Then, we hypothesized that activation of T cells in the presence of oATP could induce T cell anergy. […] The effect of oATP was not due to altered turn-over of the TCR/CD3 complex at the cell surface, as determined by FACS analysis (data not shown).

cd3ε^−/− mice [4] = test: Treg cell generation in murine model of inflammatory bowel disease; assay type: in vivo, mouse; settings: 3 mM oATP in 100 μl i.v., with transfer or 16 hours after; day 28
Description: FIG. 14: Experimental protocol for Treg generation in a mouse model of inflammatory bowel disease. • CD3ε^−/− mice were adoptively transferred with 2×10^5 naïve CD4^+ T cells; 2×10^5 naïve CD4^+ T cells with oATP; 2×10^5 naïve CD4^+ T cells with administration of oATP sixteen hours after the transfer; or 2×10^5 naïve CD4^+ T cells with 10^5 natural Treg cells. oATP-treated animals received daily intravenous oATP administration on days 2-5, no oATP administration on days 6 and 7, and daily intravenous oATP administration on days 8-12. Mice were analyzed for CD4^+ subpopulations on day 28 (See Example 12).
FIG. 15: Treg cell generation with oATP treatment in a mouse model of inflammatory bowel disease. • a) Colons, spleens and mesenteric lymph nodes of test animals were assessed for inflammation fourteen days after the last injection of oATP (see Example 12). • b) FACS analysis identifying the percentage of CD4^+CD25^highFoxp3 regulatory T cells. • c) FACS analysis identifying effector memory T cells as CD4^+CD44^+CD62L^− or CD4^+CD25^+CD69^+. The ratio of Treg cells to effector memory T cells is shown. […]
Four experimental groups of CD3ε^−/− mice were tested for Treg generation (FIG. 14). […] Mice were analyzed on day 28.
The colons of the animals were assessed for inflammation 14 days after the last injection of oATP (FIG. 15A). […]

DBA/1 mice = test: Collagen-induced arthritis model of rheumatoid arthritis; assay type: in vivo, mouse
Egr2 and Egr3 = test: Real-time PCR of anergy related genes Egr2 and Egr3; assay type: cell-based, mouse; settings: 2 h and 16 h after T cell activation
Description: as §1

SMILES: Nc1ncnc2c1ncn2[C@@H](C=O)O[C@@H](C=O)COP(=O)(O)OP(=O)(O)OP(=O)(O)O [oATP]
- Foxp3 by quantitative RT-PCR ([1]; first 6 days after anti-CD3 stimulation): progressive upregulation
- percentage of CD4^+CD25^highFoxp3^+ Treg cells ([1]; naïve CD4^+ T cells, oATP 100 μM): significantly enhanced
- expansion of Treg cells, Foxp3 expression level ([1]; sorted CD4^+CD25^+ natural Treg cells, oATP 100 μM): higher expression levels of Foxp3
- macroscopic intestine phenotype (thickening of the bowel wall, unformed or absent stool) (cd3ε^−/− mice [2]; 5 weeks after reconstitution, daily i.v. from day 15): significantly ameliorated
- number of proinflammatory cytokine (IL-2, IFN-γ and TNF-α)-secreting cells (cd3ε^−/− mice [2]; mesenteric lymph nodes): significantly reduced
- cellularity, CD4^+ effector/memory subset (CD44^+62L^−) and CD69^+ cells in mesenteric lymph nodes and spleen (cd3ε^−/− mice [2]; mouse, in vivo): undistinguishable from healthy controls
- colon histology (hematoxilin/eosin, Alcian/PAS) (cd3ε^−/− mice [2]; mouse, in vivo): lamina propria is focally expanded by inflammatory cells infiltrate
- inflammation score versus animals injected with CD4^+ and Treg cells (cd3ε^−/− mice [2]; mouse, in vivo): not significantly different
- number of IL-17 secreting cells (cd3ε^−/− mice [2]; mouse, in vivo): analogous to the number in control mice
- spleen and mesenteric lymph nodes size (cd3ε^−/− mice [2]; mouse, in vivo): normal in size
- responsiveness in calcium imaging of previously stimulated T cells [3]: reduced responsiveness
- Treg generation from naïve T cells (cd3ε^−/− mice [4]): most effective when oATP is present during the first activation of the naïve T cells
- clinical score variation versus control group (DBA/1 mice; 3 mM in 100 μl i.v., after the initial five days of treatment): consistently lower
- collagen-specific antibodies (type II collagen ELISA) (DBA/1 mice; versus control mice): decreased
- Egr2 and Egr3 transcripts (Egr2 and Egr3): significant upregulation
- cellular damage due to toxicity, PI staining versus untreated (crt^−/− CD4^+ T cells): did not reveal any difference
